Experimental data published in patent US8785459B2, “Quinazoline compounds as kinase inhibitors” (Development Center for Biotechnology, priority 2011, dated 2014).

How the values were obtained:
Format in all cases: biochemical
B-Raf = B-Raf (Homo sapiens (Human), UniProt P15056); test: Raf kinase assay (B-Raf), [33P] incorporation into MEK1(K97R); conditions: for inhibition at 1 µM: read-out: B-Raf inhibition at 1.0 μM
Procedure: (§1) A. Raf Kinase Assays (B-Raf, B-raf (V600E), and C-Raf)
(§2) Inhibition of kinase activity by test compound disclosed herein was estimated by quantifying the amount of [^33P] incorporation of substrate in the presence of test compound. Standard assay conditions were 2 ng of recombinant C-Raf or 5 ng of recombinant B-Raf or 5 ng of recombinant B-Raf (V600E) kinase (Upstate Biotechnology) with 500 ng MEK1(K97R) in assay buffer {8 μM ATP, 0.5 μCi [^33P]ATP (specific activity 3000 Ci/mmol, PerkinElmer), 50 mM Tris/HCl (pH7.5), and 1 mM EGTA, 1 mM Na3VO4, 1% 2-mercaptoethanol, 0.1% Brij 35, and 0.2 mg/ml BSA} at a final volume of 25 μL. Reactions were incubated at 30° C. for 30 min and stopped by adding 3% phosphoric acid, harvested onto a 96-well GF/B UniFilter (PerkinElmer) using a unifilter harvester (PerkinElmer), and counted with a TopCount microplate scintillation counter (PerkinElmer). The IC50 values of inhibitors were determined after carrying out assays at 3-fold serially diluted concentrations of each compound in duplication. The results were analyzed using linear regression software (GraphPad Prism 4; GraphPad Software Inc.). Inhibition of B-Raf, B-raf (V600E), and C-Raf kinases by various compounds listed in Table 1 are summarized and shown in Table 3 below. IC50 value is defined as the concentration of the test compound which achieves a half-maximal inhibition of the kinase activity.

B-Raf (V600E) = B-Raf (V600E) (Homo sapiens (Human), UniProt P15056, V600E); test: Raf kinase assay (B-Raf (V600E)), [33P] incorporation into MEK1(K97R)
Procedure: as §1, §2

C-Raf = C-Raf (Homo sapiens (Human), UniProt P04049); test: Raf kinase assay (C-Raf), [33P] incorporation into MEK1(K97R)
Procedure: as §1, §2

Chain of B-Raf (V600E) (P15056 whole entry V600E): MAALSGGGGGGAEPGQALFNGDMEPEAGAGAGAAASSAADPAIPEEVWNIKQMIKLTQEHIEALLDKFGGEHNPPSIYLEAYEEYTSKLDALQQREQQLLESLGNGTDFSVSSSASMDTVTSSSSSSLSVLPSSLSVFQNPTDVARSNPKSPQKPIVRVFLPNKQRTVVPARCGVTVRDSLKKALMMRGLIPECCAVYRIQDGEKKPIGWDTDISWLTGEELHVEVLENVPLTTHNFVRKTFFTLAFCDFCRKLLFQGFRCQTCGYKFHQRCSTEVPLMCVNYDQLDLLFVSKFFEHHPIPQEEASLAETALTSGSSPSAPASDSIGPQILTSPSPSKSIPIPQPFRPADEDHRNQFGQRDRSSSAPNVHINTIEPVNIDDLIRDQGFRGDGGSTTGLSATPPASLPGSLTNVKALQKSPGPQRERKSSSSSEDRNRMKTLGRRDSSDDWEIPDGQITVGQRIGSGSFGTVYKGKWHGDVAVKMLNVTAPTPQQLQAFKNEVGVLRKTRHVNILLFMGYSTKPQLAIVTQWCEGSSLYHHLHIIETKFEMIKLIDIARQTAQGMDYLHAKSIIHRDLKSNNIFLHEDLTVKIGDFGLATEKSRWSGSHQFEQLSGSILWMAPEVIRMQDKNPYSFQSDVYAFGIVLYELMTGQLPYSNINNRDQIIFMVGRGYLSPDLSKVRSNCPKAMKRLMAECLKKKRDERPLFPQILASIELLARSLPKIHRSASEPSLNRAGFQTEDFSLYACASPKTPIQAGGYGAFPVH
Chain of B-Raf (P15056 whole entry): as the sequence (P15056 whole entry V600E) above, with E600V counted along it
Chain of C-Raf (P04049 whole entry): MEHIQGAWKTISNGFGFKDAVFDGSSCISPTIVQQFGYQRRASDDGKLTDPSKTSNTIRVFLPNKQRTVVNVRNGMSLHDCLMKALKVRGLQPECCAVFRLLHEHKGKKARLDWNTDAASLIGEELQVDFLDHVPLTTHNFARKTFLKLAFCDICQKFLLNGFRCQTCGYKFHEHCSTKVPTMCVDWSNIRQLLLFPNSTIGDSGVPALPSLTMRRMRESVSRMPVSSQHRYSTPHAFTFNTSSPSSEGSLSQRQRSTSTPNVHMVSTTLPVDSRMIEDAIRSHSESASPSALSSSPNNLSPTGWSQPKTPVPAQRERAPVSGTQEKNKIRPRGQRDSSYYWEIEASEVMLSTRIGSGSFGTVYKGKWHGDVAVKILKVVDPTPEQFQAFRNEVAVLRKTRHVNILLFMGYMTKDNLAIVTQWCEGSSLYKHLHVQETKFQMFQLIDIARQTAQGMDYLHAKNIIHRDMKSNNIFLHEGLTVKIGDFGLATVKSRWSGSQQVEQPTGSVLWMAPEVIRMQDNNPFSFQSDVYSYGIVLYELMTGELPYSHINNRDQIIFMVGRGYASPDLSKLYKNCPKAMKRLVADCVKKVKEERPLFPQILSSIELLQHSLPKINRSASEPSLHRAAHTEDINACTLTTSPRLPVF

Compound | IC50 (B-Raf) [nM] | IC50 (B-Raf (V600E)) [nM] | IC50 (C-Raf) [nM] | inhibition at 1 µM (B-Raf; 1.0 μM compound) [%] | B-Raf inhibition at 1.0 μM (B-Raf; 1.0 μM compound) [%]
COc1cccc(-c2ccc3ncnc(Nc4ccccc4)c3c2)c1 [Compound 3, 6-(3-methoxyphenyl)-N-phenylquinazolin-4-amine] | 3290 | 3390 | > 10000 |  | 
Oc1ccc(-c2ccc3ncnc(Nc4ccccc4)c3c2)cc1 [Compound 4, 4-(4-(phenylamino)quinazolin-6-yl)phenol] | 3990 | 4870 | 9460 |  | 
COc1cc(-c2ccc3ncnc(Nc4ccc(Cl)cc4F)c3c2)ccc1O [Compound 16, 4-(4-(4-chloro-2-fluorophenylamino)quinazolin-6-yl)-2-methoxyphenol] | 817 | 810 | 1250 | 51.5 | 
COc1cc(-c2ccc3ncnc(Nc4ccc(C)cc4F)c3c2)ccc1O [Compound 17, 4-(4-(2-fluoro-4-methylphenylamino)quinazolin-6-yl)-2-methoxyphenol] | 647 | 619 | 1910 | 59.4 | 
COc1cc(-c2ccc3ncnc(Nc4cccc(C(F)(F)F)c4)c3c2)ccc1O [Compound 18, 2-methoxy-4-(4-(3-(trifluoromethyl)phenylamino)quinazolin-6-yl)phenol] | 3140 | 1170 | > 10000 | 48.9 | 
COc1cc(-c2ccc3ncnc(Nc4ccc(F)cc4F)c3c2)ccc1O [Compound 20, 4-(4-(2,4-difluorophenylamino)quinazolin-6-yl)-2-methoxyphenol] | 594 | 471 | 882 | 55.3 | 
COc1cc(-c2ccc3ncnc(Nc4ccc(Cl)cc4O)c3c2)ccc1O [Compound 21, 4-(4-(4-chloro-2-hydroxyphenylamino)quinazolin-6-yl)-2-methoxyphenol] | 1120 | 1360 | 810 | 47.6 | 
COc1cccc(Nc2ncnc3ccc(-c4ccc(O)c(OC)c4)cc23)c1 [Compound 22, 2-methoxy-4-(4-(3-methoxyphenylamino)quinazolin-6-yl)phenol] | 719 | 411 | 1390 | 63.3 | 
COc1cc(-c2ccc3ncnc(Nc4ccccc4O)c3c2)ccc1O [Compound 23, 4-(4-(2-hydroxyphenylamino)quinazolin-6-yl)-2-methoxyphenol] | 669 | 377 | 3090 | 62.6 | 
CCS(=O)(=O)Nc1ccc(-c2ccc3ncnc(Nc4ccccc4)c3c2)cc1 [Compound 24, N-(4-(4-(phenylamino)quinazolin-6-yl)phenyl)ethanesulfonamide] | 1700 | 1810 |  | 48.6 | 
COc1ccc(Nc2ncnc3ccc(-c4ccc(O)c(OC)c4)cc23)cc1O [Compound 25, 4-(4-(3-hydroxy-4-methoxyphenylamino)quinazolin-6-yl)-2-methoxyphenol] | 1110 | 842 | 1560 | 54.9 | 
COc1cc(-c2ccc3ncnc(Nc4cccc(S(N)(=O)=O)c4)c3c2)ccc1O [Compound 27, 3-(6-(4-hydroxy-3-methoxyphenyl)quinazolin-4-ylamino)benzenesulfonamide] | 415 | 453 | 887 | 77.2 | 
COc1cc(-c2ccc3ncnc(Nc4ccc(C)c(O)c4)c3c2)ccc1O [Compound 29, 4-(4-(3-hydroxy-4-methylphenylamino)quinazolin-6-yl)-2-methoxyphenol] | 177 | 212 | 1060 | 85.7 | 
COc1cc(-c2ccc3ncnc(Nc4ccccc4C(N)=O)c3c2)ccc1O [Compound 33, 2-(6-(4-hydroxy-3-methoxyphenyl)quinazolin-4-ylamino)benzamide] | 667 | 2340 | > 3000 | 53.6 | 
COc1cc(-c2ccc3ncnc(Nc4ccc(C(=O)O)cc4O)c3c2)ccc1O [Compound 34, 3-hydroxy-4-(6-(4-hydroxy-3-methoxyphenyl)quinazolin-4-ylamino)benzoic acid] | 494 | 572 | 580 | 65 | 
COc1cc(-c2ccc3ncnc(Nc4cccc(C(N)=O)c4)c3c2)ccc1O [Compound 35, 3-(6-(4-hydroxy-3-methoxyphenyl)quinazolin-4-ylamino)benzamide] | 317 | 290 | 970 | 74.9 | 
COc1cc(-c2ccc3ncnc(Nc4cccc([N+](=O)[O-])c4)c3c2)ccc1O [Compound 36, 2-methoxy-4-(4-(3-nitrophenylamino)quinazolin-6-yl)phenol] | 256 | 675 | 6990 | 76.3 | 

Compound | IC50 (B-Raf) [nM] | IC50 (B-Raf (V600E)) [nM] | IC50 (C-Raf) [nM] | inhibition at 1 µM (B-Raf; 1.0 μM compound) [%] | B-Raf inhibition at 1.0 μM (B-Raf; 1.0 μM compound) [%]
COc1cc(-c2ccc3ncnc(Nc4cccc(N)c4)c3c2)ccc1O [Compound 37, 4-(4-(3-aminophenylamino)quinazolin-6-yl)-2-methoxyphenol] | 573 | 849 | 1310 | 65.8 | 
COc1cc(-c2ccc3ncnc(Nc4ccc5c(c4)OCO5)c3c2)ccc1O [Compound 38, 4-(4-(benzo[d][1,3]dioxol-5-ylamino)quinazolin-6-yl)-2-methoxyphenol] | 660 | 707 | 1400 | 57.5 | 
O=S(=O)(Nc1ccc(-c2ccc3ncnc(Nc4ccccc4)c3c2)cc1)c1ccc(F)cc1 [Compound 70, 4-fluoro-N-(4-(4-(phenylamino)quinazolin-6-yl)phenyl)benzenesulfonamide] |  |  |  | -6.5 | 
COc1cc(-c2ccc3ncnc(Nc4cccc5[nH]ccc45)c3c2)ccc1O [Compound 83, 4-(4-(1H-indol-4-ylamino)quinazolin-6-yl)-2-methoxyphenol] |  |  |  | 36.3 | 
COc1cc(-c2ccc3ncnc(Nc4ccc(F)c(NS(C)(=O)=O)c4)c3c2)ccc1O [Compound 130, N-(2-fluoro-5-(6-(4-hydroxy-3-methoxyphenyl)quinazolin-4-ylamino)phenyl)methanesulfonamide] |  |  |  | 44.1 | 
c1ccc(Nc2ncnc3ccc(-c4ccccc4)cc23)cc1 [Compound 132, N,6-diphenylquinazolin-4-amine] |  |  |  | 22.4 | 
COc1cc(-c2ccc3ncc(C#N)c(Nc4cccc5[nH]ncc45)c3c2)ccc1O [Compound 135, 4-(1H-indazol-4-ylamino)-6-(4-hydroxy-3-methoxyphenyl)quinoline-3-carbonitrile] |  |  |  | 24 | 
COc1cc(-c2ccc3ncnc(Nc4cc(NS(C)(=O)=O)ccc4Cl)c3c2)ccc1O [Compound 139, N-(4-chloro-3-(6-(4-hydroxy-3-methoxyphenyl)quinazolin-4-ylamino)phenyl)methanesulfonamide] |  |  |  | 25.8 | 
COc1cc(-c2ccc3ncnc(Nc4ccc(Cl)c(NS(C)(=O)=O)c4)c3c2)ccc1O [Compound 140, N-(2-chloro-5-(6-(4-hydroxy-3-methoxyphenyl)quinazolin-4-ylamino)phenyl)methanesulfonamide] |  |  |  | 24.3 | 
COc1cc(-c2ccc3nccc(Nc4ccc(Cl)c(NS(C)(=O)=O)c4)c3c2)ccc1O [Compound 141, N-(2-chloro-5-(6-(4-hydroxy-3-methoxyphenyl)quinolin-4-ylamino)phenyl)methanesulfonamide] |  |  |  | 4.6 | 
Fc1ccc(Nc2ncnc3ccc(-c4ccc5[nH]ncc5c4)cc23)cc1Cl [Compound 142, N-(3-chloro-4-fluorophenyl)-6-(1H-indazol-5-yl)quinazolin-4-amine] |  |  |  | 23.3 | 
COc1cc(-c2ccc3nccc(Nc4ccc(F)c(NS(C)(=O)=O)c4)c3c2)ccc1O [Compound 145, N-(2-fluoro-5-(6-(4-hydroxy-3-methoxyphenyl)quinolin-4-ylamino)phenyl)methanesulfonamide] |  |  |  | 7.5 | 
COc1cc(-c2ccc3ncnc(Nc4c(F)ccc5[nH]ncc45)c3c2)ccc1O [Compound 149, 4-(4-(5-fluoro-1H-indazol-4-ylamino)quinazolin-6-yl)-2-methoxyphenol] |  |  |  |  | 15.2
COc1cc(-c2ccc3ncnc(Nc4cc(NS(C)(=O)=O)c(F)cc4F)c3c2)ccc1O [Compound 150, N-(2,4-difluoro-5-(6-(4-hydroxy-3-methoxyphenyl)quinazolin-4-ylamino)phenyl)methanesulfonamide] |  |  |  | 37.2 | 
C#Cc1cccc(Nc2ncnc3ccc(-c4ccc(OC)cc4)cc23)c1 [Compound 151, N-(3-ethynylphenyl)-6-(4-methoxyphenyl)quinazolin-4-amine] |  |  |  | -5.4 | 
COc1cc(-c2ccc3ncnc(Nc4c(C)ccc5[nH]ncc45)c3c2)ccc1O [Compound 155, 2-methoxy-4-(4-(5-methyl-1H-indazol-4-ylamino)quinazolin-6-yl)phenol] |  |  |  | 8.2 | 
